# Molecular target: T1, SIRT3 (Homo sapiens, UniProt Q9NTG7)
# T1 sequence (Q9NTG7 102-399): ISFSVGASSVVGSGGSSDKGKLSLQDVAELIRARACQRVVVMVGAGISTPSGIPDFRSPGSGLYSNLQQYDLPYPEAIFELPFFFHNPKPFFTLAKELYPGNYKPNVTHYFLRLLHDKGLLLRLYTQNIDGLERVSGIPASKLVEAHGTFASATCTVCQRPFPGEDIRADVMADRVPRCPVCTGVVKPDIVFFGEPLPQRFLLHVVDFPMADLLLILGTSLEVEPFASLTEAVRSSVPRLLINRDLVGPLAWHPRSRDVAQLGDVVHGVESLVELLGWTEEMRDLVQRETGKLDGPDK
# Assay: SPR (Biacore S200, immobilized SIRT3); also BLI (KD […]) and activation of the pure enzyme
# Format: binding
compound,measurement,value
"Cn1c(=O)c2c(ncn2C)n(C)c1=O [Caffeine, 1,3,7-trimethylxanthine]",Kd,686 nM

# Reference: PMC7493682, “Caffeine Targets SIRT3 to Enhance SOD2 Activity in Mitochondria” (Frontiers in Cell and Developmental Biology, 2020)
